In patent publication US6150382A, “Thio acid derived monocyclic n-heterocyclics as anticoagulants” (Berlex Laboratories, Inc., priority 1999, dated 2000):
Where a SMILES comes first, the peptide text is derived from it. [ ]: non-standard residue; d: D form. The star is where a group is joined. pNA = O=[N+]([O-])c1ccc(N*)cc1

Legend:
[1] = biological target: T1, Human thrombin (Homo sapiens, UniProt P00734); test: In vitro chromogenic assay for thrombin; format: biochemical; details: substrate concentration stated equal to Km under the present assay conditions; pH 7.5, ambient temperature; read-out: Km (S2302)
T1 construct: forms the prothrombinase complex which converts prothrombin to thrombin; purchased Enzyme Research Lab
Procedure: (§1) The activities were determined as an initial rate of cleavage of the peptide p-nitroanilide by the enzyme. The cleavage product, p-nitroaniline, absorbs at 405 nm with a molar extinction coefficient of 9920M^-1 cm^-1.
(§2) 50 mM Tris HCl, 150 mM NaCl, 2.5 mM CaCl2, and
2. Human thrombin stock solution: Stored at -80° C. (working solution (2×): 1200 ng/mL or 40 nM in assay buffer, prepare prior to use).
2. S2302 (Thrombin assay) stock solution: 10 mM in deionized H2 O, stored at 4° C. (working solution (4×): 1200, μM in assay buffer).
(§3) Assays were performed in 96-well microtiter plates in a total volume of 200 μl. […] Concentrations of the standard inhibitor compound in the assay were from 5 μM to 0.021 μM in 1 to 3 dilution. Concentration of the test compounds in the assay typically were from 10 μM to 0.041 μM in 1 to 3 dilution. For potent test compounds, the concentrations used in the factor Xa assay were further diluted 100 fold (100 nM to 0.41 nM) or 1000 fold (10 nM to 0.041 nM). […]
(§4) The enzyme kinetics were measured at 405 nm at 10 seconds intervals for five minutes in a THERMOmax plate reader at ambient temperature.
(§5) Enzyme rates were calculated as mOD/min based on the first two minutes readings. The IC50 values were determined by fitting the data to the log-logit equation (linear) or the Morrison equation (non-linear) with an EXCEL spread-sheet. […]

[2] = biological target: T2, Human tissue plasminogen activator (tPA) (Two chains, Sigma) (Homo sapiens, UniProt P00750); test: In vitro chromogenic assay for tissue plasminogen activator; format: biochemical; details: substrate concentration stated equal to Km under the present assay conditions; pH 7.5, ambient temperature; read-out: Km (S2288)
T2 construct: purchased Sigma
T2 sequence (P00750 311-562 limits assumed): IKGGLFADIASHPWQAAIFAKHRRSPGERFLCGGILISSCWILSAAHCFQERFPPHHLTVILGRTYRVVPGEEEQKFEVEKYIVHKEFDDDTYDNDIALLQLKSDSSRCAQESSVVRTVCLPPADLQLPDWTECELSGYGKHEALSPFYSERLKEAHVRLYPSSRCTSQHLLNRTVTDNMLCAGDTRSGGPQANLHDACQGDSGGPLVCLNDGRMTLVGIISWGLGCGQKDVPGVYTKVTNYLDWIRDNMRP
T2 sequence (P00750 36-310 partner limits assumed): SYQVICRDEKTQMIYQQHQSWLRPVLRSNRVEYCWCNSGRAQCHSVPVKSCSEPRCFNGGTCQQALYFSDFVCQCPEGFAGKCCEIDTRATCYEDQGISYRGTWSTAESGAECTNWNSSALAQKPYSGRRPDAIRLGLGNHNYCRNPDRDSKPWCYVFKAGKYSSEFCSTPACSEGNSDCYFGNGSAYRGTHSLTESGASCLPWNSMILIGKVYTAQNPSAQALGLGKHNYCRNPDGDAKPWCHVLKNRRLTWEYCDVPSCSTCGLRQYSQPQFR
Procedure: as §1, §2
3. Human tissue plasminogen activator (tPA) (Two chains, Sigma) stock solution: 1 mg/mL, stored at -80° C. (working solution (2×): 1361 ng/mL in assay buffer, prepare prior to use).
3. S2288 (tPA assay) stock solution: 10 mM in deionized H2 O, stored at 4° C. (working solution (4×): 1484 μM in assay buffer).
as §3, §4, §5

| Km [1] [µM] | Km [2] [µM] | Structure (SMILES) |
| --- | --- | --- |
| 300 |  | N=C(N)NCCC[C@H](NC(=O)[C@H](Cc1ccccc1)NC(=O)[C@H]1CCCN1)C(=O)Nc1ccc([N+](=O)[O-])cc1 [Example S2302] (H-[dP]-Phe-Arg-pNA) |
|  | 371 | CC[C@@H](C)[C@@H](N)C(=O)N1CCC[C@H]1C(=O)N[C@@H](CCCN=C(N)N)C(=O)Nc1ccc([N+](=O)[O-])cc1 [Example S2288] (H-[dI]-Pro-Arg-pNA) |
